Values of other authors as cited in patent publication EP2732812A1, “Pramipexole retard tablet formulation” (Aristo Pharma GmbH, priority 2012, dated 2014).
Where a name gives a salt, the structure may show the parent alone.

Which “Löslichkeit In Puffer” value (buffer, pH-Wert von 2,0 bis 7,4) does the source give for CCCN[C@H]1CCc2nc(N)sc2C1 [Pramipexoldihydrochlorid Monohydrat] here?
The value was over 10 mg/mL.

What about the “Löslichkeit In Wasser” value (in water) of the same molecule?
The value was over 20 mg/mL.
